The values that follow come from patent US4578397A, “Indeno(1,2-b)pyrrole derivatives” (Yoshitomi Pharmaceutical Industries, Ltd., priority 1982, dated 1986).

Structures are written as SMILES.

For series [1], the system named is bicuculline-induced tonic convulsion. Description: Anti-bicuculline effect (anti-tonic convulsion), oral. Format: in vivo. To be noted: Mus musculus, 5 min; bicuculline 0.6 mg/kg i.v. 60 min after oral test compound; protection of 50% against tonic convulsion within 5 min; male dd-mice; read-out: Anti-bicuculline-convulsive effect, ED50. The method, then:
2. Anti-bicuculline Effect
Groups of 4-14 male dd-mice were used. Bicuculline (0.6 mg/kg) was administered intravenously 60 minutes after the oral administration of test compound, and the ED50, the dose required to protect 50% of the animals against tonic convulsion within 5 minutes was determined.

In series [2] the test system is picrotoxin-induced lethality. Kind of series: Anti-picrotoxin effect (anti-lethal), oral. The series is classed as in vivo, male dd-mice. As to conditions: Mus musculus, 0.5 h, read-out: Anti-picrotoxin-lethal effect, ED50. As to the method: 1. Anti-picrotoxin Effect
Groups of 7-14 male dd-mice were used. Picrotoxin (5 mg/kg) was administered subcutaneously 60 minutes after the oral administration of test compound, and the 50% anti-lethal dose (ED50) was calculated from the servival rate within 30 minutes.

For series [3] the following is noted: administered peripherally; cited from earlier work.

For the compound `O=C1CC2Cc3c(Cl)cccc3C2N1` (centres unmarked) [A, 5-chloro-1,2,3,3a,4,8b-hexahydro-indeno[1,2-b]pyrrol-2-one], the ED50 amounted to 75 mg/kg in series [1] and 18 mg/kg in series [2].

For the compound `CN1C(=O)CC2Cc3c(Cl)cccc3C21` (centres unmarked) [B, 5-chloro-1-methyl-1,2,3,3a,4,8b-hexahydro-indeno[1,2-a]pyrrol-2-one], the ED50 in series [1] worked out at 68 mg/kg; in series [2], 36 mg/kg.

As for `Fc1ccc2c(c1)CC1CC(=S)NC21` (centres unmarked) [C, 6-Fluoro-1,2,3,3a,4,8b-hexahydro-indeno[1,2-b]pyrrol-2-thione], the ED50 in series [1] worked out at 70 mg/kg; in series [2] it was 45 mg/kg.

In the case of `O=C1CC2Cc3ccccc3C2N1` (centres unmarked) [Compound E, 1,2,3,3a,4,8bHexahydro-indeno[1,2b]pyrrol2-one, reference compound], the ED50 in series [1] and in series [2] was > 100 mg/kg each time.

As for `O=C1CC2Cc3ccc(F)cc3C2N1` (centres unmarked) [D, 7-Fluoro-1,2,3,3a,4,8b-hexahydro-indeno[1,2-b]pyrrol-2-one], the ED50 in series [1] amounted to 56 mg/kg; in series [2], 48 mg/kg.

Consider `NCCCC(=O)O` [GABA, gamma-aminobutyric acid], for which, in series [3], the “transmission through the blood-brain barrier” value is reported as “hard to transmit through the blood-brain barrier”.

Usually ED50 stands for the dose that gives a 50% effect, or the effect in half of the subjects.
